pIC50: −log10 of the molar value.

Drawing on patent publication US9376418B2, “Substituted pyridine spleen tyrosine kinase (SYK) inhibitors” (Merck Sharp & Dohme Corp., priority 2012, dated 2016), this text covers IC50 for 31 molecules.

This assay concerns the target T1, recombinant human GST-SYK (Homo sapiens, UniProt P43405).
T1 construct: purchased Carna Biosciences 08-176
As to the kind of experiment: Homogeneous Time-Resolved Fluorescence (HTRF) assay for the recombinant human Syk enzyme. Conditions: HTRF assay, recombinant human GST-SYK; IC50 given as class symbols; read-out: rhSYK Activity. The class given is biochemical. The method, boiled down:
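GST-hSYK ([…]) was preincubated with inhibitor (0.1% DMSO) for 10 min at room temperature in Tris-HCl pH 7.5 with tween 20 and DTT. Biotinylated peptide (250 nM), Mg (5 mM) and ATP (25 μM) were added for 45 min. The reaction was quenched with EDTA, and phosphotyrosine was read by Eu-antibody/SA-APC HTRF after 30 min.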
With `Cc1cc(Nc2nccc(C(F)(F)F)n2)cc(-c2ccc(C(=O)N3CCCC34CCNC4=O)nc2)c1` (stereo not shown) [Example 16.44, 1-{[5-(3-methyl-5-{[4-(trifluoromethyl)pyrimidin-2-yl]amino}phenyl)pyridin-2-yl]carbonyl}-1,7-diazaspiro[4.4]nonan-6-one], the pIC50 was above 7.00.
The figure for `COCC(O)CNC(=O)c1ccc(-c2cc(C)cc(Nc3nccc(C(F)(F)F)n3)c2)cn1` (stereo not shown) [Example 16.45, N-(2-hydroxy-3-methoxypropyl)-5-(3-methyl-5-{[4-(trifluoromethyl)pyrimidin-2-yl]amino}phenyl)pyridine-2-carboxamide] is above 7.00.
To `Cc1cc(Nc2nccc(C(F)(F)F)n2)cc(-c2ccc(C(=O)NC(C3CC3)C3CC3)nc2)c1` [Example 16.46, N-(dicyclopropylmethyl)-5-(3-methyl-5-{[4-(trifluoromethyl)pyrimidin-2-yl]amino}phenyl)pyridine-2-carboxamide] belongs 6.00 to 7.00; to `Cc1cc(Nc2nccc(C(F)(F)F)n2)cc(-c2ccc(C(=O)N3CCCC(C)(O)C3)nc2)c1` (stereo not shown) [Example 16.47, 3-methyl-1-{[5-(3-methyl-5-{[4-(trifluoromethyl)pyrimidin-2-yl]amino}phenyl)pyridin-2-yl]carbonyl}piperidin-3-ol], above 7.00.
To `Cc1cc(Nc2nccc(C(F)(F)F)n2)cc(-c2ccc(C(=O)N3CCC(C)(O)CC3)nc2)c1` [Example 16.48, 4-methyl-1-{[5-(3-methyl-5-{[4-(trifluoromethyl)pyrimidin-2-yl]amino}phenyl)pyridin-2-yl]carbonyl}piperidin-4-ol] belongs above 7.00.
Take `Cc1cc(Nc2nccc(C(F)(F)F)n2)cc(-c2ccc(C(=O)N3CC[S+]([O-])CC3)nc2)c1` [Example 16.49, N-(3-methyl-5-{6-[(1-oxidothiomorpholin-4-yl)carbonyl]pyridin-3-yl}phenyl)-4-(trifluoromethyl)pyrimidin-2-amine]: the pIC50 is above 7.00.
Regarding `Cc1cc(Nc2nccc(C(F)(F)F)n2)cc(-c2ccc(C(=O)NCCS(N)(=O)=O)nc2)c1` [Example 16.50, 5-(3-methyl-5-{[4-(trifluoromethyl)pyrimidin-2-yl]amino}phenyl)-N-(2-sulfamoylethyl)pyridine-2-carboxamide], the pIC50 was above 7.00.
As to `Cc1cc(Nc2nccc(C(F)(F)F)n2)cc(-c2ccc(C(=O)N(C)Cc3n[nH]c(=O)[nH]3)nc2)c1` [Example 16.51, N-methyl-5-(3-methyl-5-{[4-(trifluoromethyl)pyrimidin-2-yl]amino}phenyl)-N-[(5-oxo-4,5-dihydro-1H-1,2,4-triazol-3-yl)methyl]pyridine-2-carboxamide], the pIC50 is above 7.00.
Consider `Cc1cc(Nc2nccc(C(F)(F)F)n2)cc(-c2ccc(C(=O)N3CCC[S+]([O-])CC3)nc2)c1` (stereo not shown) [Example 16.52, N-(3-methyl-5-{6-[(1-oxido-1,4-thiazepan-4-yl)carbonyl]pyridin-3-yl}phenyl)-4-(trifluoromethyl)pyrimidin-2-amine], for which the pIC50 is above 7.00.
As to `Cc1cc(Nc2nccc(C(F)(F)F)n2)cc(-c2ccc(C(=O)NCc3ncc[nH]3)nc2)c1` [Example 16.53, N-(1H-imidazol-2-ylmethyl)-5-(3-methyl-5-{[4-(trifluoromethyl)pyrimidin-2-yl]amino}phenyl)pyridine-2-carboxamide], the pIC50 is 6.00 to 7.00.
To `Cc1cc(Nc2nccc(C(F)(F)F)n2)cc(-c2ccc(C(=O)NC3CCS(=O)(=O)C3)nc2)c1` (stereo not shown) [Example 16.54, N-(1,1-dioxidotetrahydrothiophen-3-yl)-5-(3-methyl-5-{[4-(trifluoromethyl)pyrimidin-2-yl]amino}phenyl)pyridine-2-carboxamide] belongs above 7.00.
The figure for `Cc1cc(Nc2nccc(C(F)(F)F)n2)cc(-c2ccc(C(=O)N3CCS(=O)(=O)CC3)nc2)c1` [Example 16.55, N-(3-{6-[(1,1-dioxidothiomorpholin-4-yl)carbonyl]pyridin-3-yl}-5-methylphenyl)-4-(trifluoromethyl)pyrimidin-2-amine] is above 7.00; for `Cc1cc(Nc2nccc(C(F)(F)F)n2)cc(-c2ccc(C(=O)N(C)CC(O)CO)nc2)c1` (stereo not shown) [Example 16.56, N-(2,3-dihydroxypropyl)-N-methyl-5-(3-methyl-5-{[4-(trifluoromethyl)pyrimidin-2-yl]amino}phenyl)pyridine-2-carboxamide] it is above 7.00; for `CNS(=O)(=O)CCNC(=O)c1ccc(-c2cc(C)cc(Nc3nccc(C(F)(F)F)n3)c2)cn1` [Example 16.57, N-[2-(methylsulfamoyl)ethyl]-5-(3-methyl-5-{[4-(trifluoromethyl)pyrimidin-2-yl]amino}phenyl)pyridine-2-carboxamide] it is above 7.00.
Consider `Cc1cc(Nc2nccc(C(F)(F)F)n2)cc(-c2ccc(C(=O)N(C)CCS(C)(=O)=O)nc2)c1` [Example 16.58, N-methyl-N-[2-(methylsulfonyl)ethyl]-5-(3-methyl-5-{[4-(trifluoromethyl)pyrimidin-2-yl]amino}phenyl)pyridine-2-carboxamide], for which the pIC50 was above 7.00.
The figure for `CCN(C)C(=O)c1ccc(-c2cc(C)cc(Nc3nccc(C(F)(F)F)n3)c2)cn1` [Example 16.59, N-ethyl-N-methyl-5-(3-methyl-5-{[4-(trifluoromethyl)pyrimidin-2-yl]amino}phenyl)pyridine-2-carboxamide] is above 7.00; for `Cc1cc(Nc2nccc(C(F)(F)F)n2)cc(-c2ccc(C(=O)N(CCO)CCO)nc2)c1` [Example 16.60, N,N-bis(2-hydroxyethyl)-5-(3-methyl-5-{[4-(trifluoromethyl)pyrimidin-2-yl]amino}phenyl)pyridine-2-carboxamide] it is above 7.00; for `CNC(=O)CN(C)C(=O)c1ccc(-c2cc(C)cc(Nc3nccc(C(F)(F)F)n3)c2)cn1` [Example 16.61, N-methyl-N-[2-(methylamino)-2-oxoethyl]-5-(3-methyl-5-{[4-(trifluoromethyl)pyrimidin-2-yl]amino}phenyl)pyridine-2-carboxamide] it is above 7.00.
To `Cc1cc(Nc2nccc(C(F)(F)F)n2)cc(-c2ccc(C(=O)N(C)CC(N)=O)nc2)c1` [Example 16.62, N-(2-amino-2-oxoethyl)-N-methyl-5-(3-methyl-5-{[4-(trifluoromethyl)pyrimidin-2-yl]amino}phenyl)pyridine-2-carboxamide] belongs above 7.00; to `CNC(=O)CNC(=O)c1ccc(-c2cc(C)cc(Nc3nccc(C(F)(F)F)n3)c2)cn1` [Example 16.63, N-[2-(methylamino)-2-oxoethyl]-5-(3-methyl-5-{[4-(trifluoromethyl)pyrimidin-2-yl]amino}phenyl)pyridine-2-carboxamide], 6.00 to 7.00.
The figure for `Cc1cc(Nc2nccc(C(F)(F)F)n2)cc(-c2ccc(C(=O)NCCS(C)(=O)=O)nc2)c1` [Example 16.64, N-[2-(methylsulfonyl)ethyl]-5-(3-methyl-5-{[4-(trifluoromethyl)pyrimidin-2-yl]amino}phenyl)pyridine-2-carboxamide] is 6.00 to 7.00; for `Cc1cc(Nc2nccc(C(F)(F)F)n2)cc(-c2ccc(C(=O)N3CCN(CC(F)(F)F)CC3)nc2)c1` [Example 16.65, N-[3-methyl-5-(6-{[4-(2,2,2-trifluoroethyl)piperazin-1-yl]carbonyl}pyridin-3-yl)phenyl]-4-(trifluoromethyl)pyrimidin-2-amine] it is 6.00 to 7.00.
As to `Cc1cc(Nc2nccc(C(F)(F)F)n2)cc(-c2ccc(CN3CCNC3=O)nc2)c1` [Example 17.1, 1-{[5-(3-Methyl-5-{[4-(trifluoromethyl)pyrimidin-2-yl]amino}phenyl)pyridin-2-yl]methyl}imidazolidin-2-one], the pIC50 is above 7.00.
The figure for `Cc1cc(Nc2nccc(C(F)(F)F)n2)cc(-c2ccc(CNC(N)=O)nc2)c1` [Example 17.2, 1-{[5-(3-methyl-5-{[4-(trifluoromethyl)pyrimidin-2-yl]amino}phenyl)pyridin-2-yl]methyl}urea] is above 7.00.
Regarding `CNC(=O)NCc1ccc(-c2cc(C)cc(Nc3nccc(C(F)(F)F)n3)c2)cn1` [Example 17.3, 1-methyl-3-{[5-(3-methyl-5-{[4-(trifluoromethyl)pyrimidin-2-yl]amino}phenyl)pyridin-2-yl]methyl}urea], the pIC50 was above 7.00.
In the case of `CCC(C)(C#N)Nc1ccc(-c2cc(C)cc(Nc3nccc(C(F)(F)F)n3)c2)cn1` (stereo not shown) [Example 18.1, 2-Methyl-2-{[5-(3-methyl-5-{[4-(trifluoromethyl)pyrimidin-2-yl]amino}phenyl)pyridin-2-yl]amino}butanenitrile], the pIC50 was above 7.00.
The figure for `Cc1cc(Nc2nccc(C(F)(F)F)n2)cc(-c2ccc(NC(C)(C#N)C(C)(C)C)nc2)c1` (stereo not shown) [Example 18.3, 2,3,3-trimethyl-2-{[5-(3-methyl-5-{[4-(trifluoromethyl)pyrimidin-2-yl]amino}phenyl)pyridin-2-yl]amino}butanenitrile] is 6.00 to 7.00; for `CCC(C)(C#N)Nc1ccc(-c2cc(C)cc(Nc3nccc(C(F)(F)F)n3)c2)cn1` (stereo not shown) [Example 18.4, 2-methyl-2-{[5-(3-methyl-5-{[4-(trifluoromethyl)pyrimidin-2-yl]amino}phenyl)pyridin-2-yl]amino}butanenitrile] it is 6.00 to 7.00.
To `Cc1cc(Nc2nccc(C(F)(F)F)n2)cc(-c2ccc(NC(C)(CC(F)(F)F)C(=O)O)nc2)c1` (stereo not shown) [Example 18.5, 4,4,4-Trifluoro-N-[5-(3-methyl-5-{[4-(trifluoromethyl)pyrimidin-2-yl]amino}phenyl)pyridin-2-yl]isovaline] belongs above 7.00.
To `CCC(C)(Nc1ccc(-c2cc(C)cc(Nc3nccc(C(F)(F)F)n3)c2)cn1)C(=O)O` (stereo not shown) [Example 18.6] belongs above 7.00; to `Cc1cc(Nc2nccc(C(F)(F)F)n2)cc(-c2ccc(NC(C)(CC(F)(F)F)c3nnn[nH]3)nc2)c1` (stereo not shown) [Example 18.7, N-[3-methyl-5-(6-{[4,4,4-trifluoro-2-(1H-tetrazol-5-yl)butan-2-yl]amino}pyridin-3-yl)phenyl]-4-(trifluoromethyl)pyrimidin-2-amine], above 7.00.
